Test results as given in patent US20180028480A1, “METHODS OF REDUCING OR PREVENTING OXIDATIVE MODIFICATION OF MEMBRANE POLYUNSATURATED FATTY ACIDS” (Amarin Pharmaceuticals Ireland Limited, priority 2015, published 2018).

Assays:
[1] = system: lipid vesicles enriched with PUFAs and cholesterol; assay: Glucose-induced membrane lipid peroxidation (LOOH) in DLPC/cholesterol multilamellar vesicles (Example 4); format: biochemical; details: each at 1.0 μM; glucose 200 mg/dL; 96 hours
Procedure: Vitamin E (α-tocopherol) was also purchased from Sigma-Aldrich and prepared in ethanol at 1.0 mM (ε32 3.06×10^4 M^−1 cm^−1 at 294 nm) just prior to experimental use. […] All test compounds were further diluted in ethanol or aqueous buffer as needed. Glucose was prepared in saline buffer (0.5 mM HEPES, 154 mM NaCl, pH 7.3) at 11.0 mM (200 mg/dL). CHOD-iodide color reagent (stock) was prepared, with slight modification, as described by from El-Saadani et al. (J. […] Prior to experimental use, the CHOD reagent was activated by adding 24 μM ethylenediaminetetraacetic acid (EDTA), 20 μM butylated hydroxytoluene (BHT), and 0.2% Triton X-100. Multilamellar vesicles (MLVs) were prepared as binary mixtures of DLPC (1.0 or 2.5 mg total phospholipid per sample) and cholesterol at a fixed cholesterol-to-phospholipid (C/P) mole ratio of 0.6:1. Component lipids (in chloroform) were transferred to 13×100 mm borosilicate culture tubes and combined with vehicle (ethanol) or an equal volume of fatty acid, vitamin E, or ATM stock solutions, each adjusted to achieve desired treatment concentrations. Samples were shell-dried under nitrogen gas and placed under vacuum for 1 h to remove residual solvent. […] Lipid suspensions were then vortexed for 3 min at ambient temperature to form MLVs. All MLV samples were subjected to time-dependent autoxidation by incubating at 37° C. in an uncovered, shaking water bath. This method allows lipid peroxidation to occur gradually without requiring the use of exogenous initiators. Small aliquots (5-100 μL) of each sample were removed, immediately following MLV preparation (0 hour) and after exposing samples to oxidative conditions for 72 or 96 hour, and combined with 1.0 mL of activated CHOD-iodide color reagent. Aliquot volume was reduced with each successive time point to ensure that spectrophotometric readings were within the optimal adsorption range. Test samples were covered and incubated in darkness at room temperature for at least 4 hr. Sample absorbances were then measured against a CHOD blank at 365 nm using a Beckman DU-640 spectrophotometer. The CHOD colorimetric assay is based on the oxidation of iodide (I^−) by lipid hydroperoxide (LOOH) to form triiodide (I3^−), the quantity of which is directly proportional to the amount of LOOH present in the lipid sample. The molar absorptivity (c) of I3^− is 2.46×10^4 M^−1 cm^−1 at 365 nm. […] The concentration of glucose selected was consistent with previous experimental studies of hyperglycemia under controlled laboratory conditions or observed in well-defined animal models of Type II diabetes following a glucose challenge. […] Values in FIG. 1 are mean±S.D. (N=6). […]

[2] = X-ray diffraction of cholesterol-enriched POPC membranes without oxidative conditions (Example 8); details: 5 mol %; 50 mol % cholesterol; 15° C., 20° C., 30° C. (FIG. 18)
Procedure: Values are mean±S.D. (N=3).
FIGS. 18A-18C show representative x-ray diffraction patterns collected from cholesterol-enriched model membranes treated with vehicle (control), eicosapentaenoic acid (EPA), or docosahexaenoic acid (DHA) and examined at 15° C., 20° C., and 30° C. Membranes were reconstituted from POPC and cholesterol at 50 mol % cholesterol and treated with each of the various agents at 5 mol % (to match treatments used in corresponding lipid dynamics experiments). Each sample was maintained at 74% relative humidity by exposing the samples to a saturated solution of L-(+) tartaric acid. […] DHA, but not EPA or vehicle, induced the formation of cholesterol domains, which are indicated by a distinct set of diffraction peaks (shaded peaks) having a characteristic d-space value of 34 Å and shown to be stable over a broad range of temperatures.
(§1) Multilamellar vesicles (MLVs) were prepared as binary mixtures of POPC and cholesterol at 50 mol %. MLVs with DLPC and cholesterol at cholesterol-to-phospholipid (C/P) mole ratios of 0.1:1 to 1.1:1 were also prepared in a similar manner. Component lipids (in chloroform) were transferred to borosilicate culture tubes and combined with vehicle (ethanol) or an equal volume of EPA, DHA, fenofibrate, niacin or gemfibrozil stock solution(s) and adjusted to achieve a drug-to-phospholipid (D/P) mole ratio of 1:30. Membranes reconstituted from POPC and cholesterol (at 50 mol % cholesterol) were treated with each of the various agents at 5 mol %. Samples were then shell-dried under nitrogen gas and placed under vacuum for 3 hours to remove residual solvent.
Membrane samples were oriented for x-ray diffraction analysis as described in Mason, et al., J. Biol. Chem., vol. 281, pages 9337-45 (2006). Briefly, 100 μL aliquots of each MLV preparation (containing 250 μg of phospholipid) were transferred to Lucite sedimentation cells fitted with a removable aluminum foil substrate designed to collect MLVs into a single membrane pellet upon centrifugation. […]

[3] = Fluorescence anisotropy, DPH apparent rotational correlation time (Example 8); details: POPC, 0 or 50 mol % cholesterol; increasing omega-3 fatty acid concentrations (FIGS. 16A-16B)
Excerpt: FIGS. 16A-16B show the dose-dependent effects of EPA and DHA on the ARCT measured for DPH in POPC membranes prepared at either 0 or 50 mol % cholesterol. †p=0.0331 versus cognate DHA treatment (5 mol % omega-3 fatty acids (O3FA), no cholesterol); ^§p=0.0016 versus cognate DHA treatment (5 mol % O3FA, 50 mol % cholesterol); ^‡p=0.0032 versus cognate DHA treatment (10 mol % O3FA, 50 mol % cholesterol) (unpaired, two-tailed Student's t-test). Values are mean±S.D. (N=3).
Fluorescence anisotropy experiments were conducted using large unilamellar vesicles (LUVs) of 100 nm diameter of either POPC (or POPC/cholesterol) containing increasing concentrations of EPA or DHA and 1 mol % DPH fluorescent. Briefly, 640 nmol of total lipid (phospholipid and sterol) and 6.4 nmol of fluorescent probe was mixed well and dried under a stream of nitrogen while being warmed gently at 35° C. […]
In order to ensure that the anisotropy values measured for DPH are not influenced by lifetime-induced artifacts, the apparent (average) rotational correlation times (ARCT) were calculated using Perrin's equation: […]
where r0 is the limiting anisotropy of DPH, r is the steady state anisotropy, and is the mean fluorescence lifetime.

[4] = X-ray diffraction of glucose-treated DLPC/cholesterol membranes under oxidative conditions (Example 8); details: for effect on d-space values: 10.0 μM, 0.6 C/P, glucose-induced lipid peroxidation 72 hours (FIG. 14); for cholesterol domain peaks compared to samples treated with EPA: after 96 hours, C/P 0.6:1, drug-to-phospholipid 1:30
Procedure: Values are reported as mean±S.D. (N=3).
[…] Membranes were reconstituted from DLPC and cholesterol at a C/P mole ratio of 0.6:1 and treated with the various agents to achieve a total drug-to-phospholipid mole ratio of 1:30.
as §1
After drying, each sample was resuspended in glucose-free or glucose-containing saline buffer to yield a final phospholipid concentration of 2.5 mg/mL. Lipid suspensions were then vortexed for 3 minutes at ambient temperature to form MLVs.
Membrane samples were oriented for x-ray diffraction analysis as described in Mason, et al., J. Biol. Chem., vol. 281, pages 9337-45 (2006). Briefly, 100 μL aliquots of each MLV preparation (containing 250 μg of phospholipid) were transferred to Lucite sedimentation cells fitted with a removable aluminum foil substrate designed to collect MLVs into a single membrane pellet upon centrifugation. Samples were then loaded into a Sorvall AH-629 swinging bucket ultracentrifuge rotor (DuPont Corp., Wilmington, Del.) and centrifuged at 35,000 g, 5° C., for 1.5 hours.
Following membrane orientation, sample supernatants were aspirated and aluminum foil substrates mounted onto curved glass slides. The membrane samples were then placed in hermetically sealed containers in which temperature and relative humidity were controlled during x-ray diffraction analysis. Data reported in this study were collected at 20° C. and 74% relative humidity.
This technique allows for precise measurement of the unit cell periodicity, or d-space, of the membrane lipid bilayer, which is the distance from the center of one lipid bilayer to the next, including surface hydration.
The presence of cholesterol domains in a given membrane sample results in the production of distinct Bragg (diffraction) peaks that have singular periodicity values of 34 Å and 17 Å. These peaks are typically referred to as first- and second-order cholesterol domain peaks.

SMILES	antioxidant effect (LOOH formation), separate treatments [1]	membrane cholesterol domain formation [2]	DPH apparent rotational correlation time / membrane fluidity [3]	effect on d-space values [4]	cholesterol domain peaks compared to samples treated with EPA [4]
CC(C)c1c(C(=O)Nc2ccccc2O)c(-c2ccccc2)c(-c2ccc(F)cc2)n1CC[C@@H](O)C[C@@H](O)CC(=O)O [ATM, Atorvastatin ortho- (o-) hydroxy (active) metabolite, reference compound]	separate and potent antioxidant effects	–	–	–	–
CC/C=C\C/C=C\C/C=C\C/C=C\C/C=C\C/C=C\CCC(=O)O [DHA, cis-4,7,10,13,16,19-docosahexaenoic acid, reference compound]	–	induced formation of membrane cholesterol domains	reduced DPH apparent rotational correlation time	–	–
Cc1ccc(C)c(OCCCC(C)(C)C(=O)O)c1 [gemfibrozil]	–	–	–	significant reductions in d-space	disproportionately greater
O=C(O)c1cccnc1 [niacin, nicotinic acid]	–	–	–	significant reductions in d-space	disproportionately greater
